Literature values, collected in patent US20050085455A1, “Photodynamic therapy for local adipocyte reduction” (Light Sciences Corporation, priority 2003, published 2005).

Details: systemically administered sensitizer in clinical use; for duration of skin sensitization: result in words

Compound | duration of skin sensitization | duration of photosensitivity (skin photosensitivity)
CCOC(=O)C1=Cc2c3nc(cc4nc(cc5[n-]c(cc6[n-]c2c(C)c6CC)c(C)c5CC)C(C)=C4CC)[C@@H](C)[C@]13CC.[Cl-].[Cl-].[Sn] (racemic) [Purlytin] | several weeks | –
sodium porfimer [Photophrin] | – | up to 6 weeks
Oc1cccc(-c2c3nc(c(-c4cccc(O)c4)c4ccc([nH]4)c(-c4cccc(O)c4)c4nc(c(-c5cccc(O)c5)c5ccc2[nH]5)CC4)C=C3)c1 [Foscan] | several weeks | –
